{"source": "patent US20030054332A1", "about": "“Markers for evaluating estrogenic activity” (priority 2001, published 2003)", "key": {"VE-ERα cells": {"tested_on": "VE-ERα cells", "assay": "Incyte UniGEM estrogen regulated gene profile of VE-ERα cells", "type": "cell-based, human", "conditions": "VE-ERα cells treated for 6 hours vs ethanol", "method": "The Incyte UniGEM technology was used to survey a large panel of genes and to establish the estrogen regulated gene profile of the VE-ERα cells. VE-ERα cells were treated for 6 hours with 17-β estradiol or vehicle control (ethanol). Poly (A) RNA was isolated and this RNA was used to synthesize Cy3 or Cy5 labeled cDNA for simultaneous probing of Incyte UniGem V. Reciprocal labeling was done and two UniGems were probed (for one GEM the estradiol probe was labeled with Cy3 and ethanol probe with Cy5 and this labeling was reversed for the second GEM). UniGem V contains approximately 8500 human sequences including both known genes and ESTs. More than 20 genes were identified which were regulated more than 2 fold on both UniGEMs (Table I, indicated as UniGem. The sequence indicated in Table I with RF were identified by RNA fingerprinting, a more stringent version of differential display. RNA fingerprinting is based upon the use of arbitrary primers and primer combinations to carry out PCR amplifications from cDNA populations derived from cells or tissues of interest. The process generates a series of radioactively-labeled fragments which can be resolved by PAGE and visualized by autoradiography. (Mathieu-Daude, et al. Methods Enzymol 1999;303:309; Stone, et al., Nucleic Acids Res 1994 Jul 11;22(13):2612-8.)"}, "cyclin A1 in Osteoblasts": {"tested_on": "cyclin A1 in Osteoblasts", "assay": "Cyclin A1 expression and induction, osteoblasts", "type": "cell-based", "set-up": "key: (+) indicates detectable cyclin A1; (−) indicates no detectable cyclin A1 expression", "conditions": "immortalized human cells", "source_text": "(§1) Cyclin A1 expression and the effect of estradiol on expression in a number of immortalized and primary cells lines was further evaluated as described above."}, "[1]": {"tested_on": "cyclin A1 in Primary vascular endothelial cells", "assay": "Cyclin A1 expression and induction, primary vascular endothelial cells", "type": "cell-based", "set-up": "key: (+) indicates detectable cyclin A1; (−) indicates no detectable cyclin A1 expression", "source_text": "as §1"}, "[2]": {"tested_on": "cyclin A1 in Vascular smooth muscle cells", "assay": "Cyclin A1 expression and induction, vascular smooth muscle cells", "type": "cell-based", "set-up": "key: (+) indicates detectable cyclin A1; (−) indicates no detectable cyclin A1 expression", "conditions": "immortalized human cells", "source_text": "as §1"}, "[3]": {"tested_on": "cyclin A1 in Primary vascular smooth muscle cells", "assay": "Cyclin A1 expression and induction, primary vascular smooth muscle cells", "type": "cell-based", "set-up": "key: (+) indicates detectable cyclin A1; (−) indicates no detectable cyclin A1 expression", "source_text": "as §1"}, "[4]": {"tested_on": "prostacyclin I2 synthase in VE-ERα cells", "assay": "Estrogen treatment time course, RNase protection analysis of prostacyclin I2 synthase in VE-ERα cells", "type": "cell-based, human", "conditions": "at 24 hours", "method": "This step is not necessary with genes identified by the UniGem where an estrogen treatment time course was performed. RNA was isolated and RNase protection analysis was used to determine estrogen responses (FIG. 2). All 20 of the genes examined were confirmed to be regulated to a higher fold modulation at 24 hours than the 6 hours used for the UniGem experiment.\nThe genes identified were relevant genes for vascular endothelial cells and in some cases consistent with the known effects of estrogen in the cardiovascular system. […] This enzyme is required for that last step in the synthesis of prostacyclin (PGI2). […] Another relevant gene was natriuretic peptide receptor B (NPR-B) which is the receptor for C-type natriuretic peptide (CNP), an endothelium dependent vasodilator."}, "[5]": {"tested_on": "cyclin A1 in ERα-enhanced vascular endothelial cells", "assay": "Cyclin A1 RNase protection, ERα-enhanced vascular endothelial cells", "type": "cell-based, human", "conditions": "for cyclin A1 mRNA (in words): ERα-enhanced cells, 100 nM E2, 1 μM ICI 164384, 10 nM DES", "method": "RNA was prepared using standard methods and RNase protection experiments were performed to evaluate the time course of cyclin A1 induction.\n(§2) In a similar experiment, RNase protection assays were performed using estrogen receptor α- and estrogen receptor β-enhanced vascular endothelial cells. […] The results are presented in FIGS. 4A and 5B, which show the levels of various cyclins in estrogen receptor α- and estrogen receptor β-enhanced cells, respectively. Arrows indicate mRNA for each indicated cyclin. […] Cyclin A1 is the only cyclin in the panel increased by estradiol treatment.\nas §1"}, "[6]": {"tested_on": "VEGF mRNA in VE-ERα cells", "assay": "VEGF mRNA expression in VE-ERα cells by RNAse protection analysis", "type": "cell-based, human", "conditions": "VE-ERα cells treated with estrogen; RNAse protection analysis (FIG. 1, 100 nM)", "method": "Estrogen receptor α (ERα)-enhanced vascular endothelial cells were prepared by infecting primary vascular endothelial cells with a retrovirus expressing human papillomavirus E6/E7, which leads to cellular immortalization. The retrovirus expression vector LXSN16E6E7 contains the immortalizing oncogenes E6 and E7 from human papilloma virus type 16 and a neomycin resistance gene. (Halbert, C. L., Demers, F. W., and Galloway, D. A. 1991. J Virol. 65: 473-478 (1)). This vector was transfected into PA317 cells, an amphotrophic packaging cell line, by calcium phosphate precipitation. Stably clonal lines were established by G418 selection. A negative control line expressing the empty retrovirus LXSN was established. Viruses produced by the clonal lines of PA317 were used to infect second passage primary human aortic endothelial cells obtained from Cell Applications, Inc., San Diego, Calif. Following infection and selection with G418, the LXSN infected cells ceased growth after approximately 7 passages where the LXSN16E6E7 infected cells were growth extended beyond 20 passages.\nThe cells expressed the expected endothelial markers. The levels of ERα were increased by infection of the cells with a retrovirus that expresses recombinant ERα (Green, S. et al, Nature 1986 320: 134-137). […]"}, "[7]": {"tested_on": "estrogen-regulated genes in VE-ERα cells", "assay": "Multigene RNase protection assay (RPA) with VE-ERα cells", "type": "cell-based, human", "conditions": "for induction of expression of estrogen-regulated genes / effect on basal gene expression: 5 dose 0.1 nM-1000 nM for 24 hours", "source_text": "Another preferred assay is an RNase protection assay (RPA), which can be used to examine a panel of genes identified as estrogen-regulated in VE-ERα cells. The RPA is described in Gilman, 1993, In Current Protocols in Molecular Biology, Vol. 1 (Ausubel, F. M., R. Brent, R, E. Kingston, D. D. Moore, J. G. Seidman, J. A. Smith and K. Stuhl, eds.) pp. 4.7.1-4.7.8, John Wiley and Sons, Inc., New York, incorporated herein by reference in its entirety. Within this assay, which may be performed according to standard protocols, multiple probes can be used in a single reaction that requires as little as 1 μg of total RNA, resulting in high information content and a molecule profile for each compound on ERα. regulated gene expression in vascular endothelial cells. The RPA assay is very sensitive and is therefore able to detect low copy messages and distinguish low fold modulations typical of estrogen. This approach has a number of advantages over a reporter assay. The endogenous genes in the multigene assay will contain all endogenous gene regulatory elements and will not be restricted to activation occurring through an ERE element. Since VE-ERα cells are human cells that have been characterized and determined to maintain endothelial specific phenotypic markers and functions, tissue selective ER regulation can be investigated.\nAn RNase protection assay (RPA) was used to examine a panel of genes identified as estrogen-regulated in VE-ERα cells.\n(§3) In a further experiment, compounds known to have estrogen-like activity based on ER binding and ERE transactivation (ERE luciferase reporter in Chinese hamster ovary cells expressing transfected ERα) were evaluated. […] In order to confirm that these active compounds were working in an ER dependent manner, VE103-ERα cells were treated with a single dose of compound and increasing doses of ICI 164,384. […] All results are presented as percent of estrogen. PGI2 synthase numbers were based on EC50 from a 5-point dose response like that shown for estrogen in FIG. 5."}, "[8]": {"tested_on": "cyclin A1 in ERβ-enhanced vascular endothelial cells", "assay": "Cyclin A1 RNase protection, ERβ-enhanced vascular endothelial cells", "type": "cell-based, human", "conditions": "100 nM E2, 1 μM ICI 164384, 10 nM DES", "method": "as §2, §1"}, "MCF-7 cells": {"tested_on": "MCF-7 cells", "assay": "Estrogen regulation of marker genes in MCF-7 cells", "type": "cell-based"}, "[9]": {"tested_on": "cyclin A1 in Vascular endothelial cells", "assay": "Cyclin A1 expression and induction, vascular endothelial cells", "type": "cell-based", "set-up": "key: (+) indicates detectable cyclin A1; (−) indicates no detectable cyclin A1 expression", "conditions": "immortalized human cells", "source_text": "as §1"}, "[10]": {"tested_on": "ERE luciferase reporter in Chinese hamster ovary cells expressing transfected ERα", "assay": "ERE transactivation (ERE luciferase reporter in Chinese hamster ovary cells expressing transfected ERα)", "type": "cell-based", "method": "as §3"}, "[11]": {"tested_on": "cyclin A1 in Endometrial epithelial cells", "assay": "Cyclin A1 expression and induction, endometrial epithelial cells", "type": "cell-based", "set-up": "key: (+) indicates detectable cyclin A1; (−) indicates no detectable cyclin A1 expression", "conditions": "immortalized human cells", "source_text": "as §1"}, "[12]": {"tested_on": "cyclin A1 in MCF-7 (mammary cancer cell line)", "assay": "Cyclin A1 expression and induction, MCF-7", "type": "cell-based", "set-up": "key: (+) indicates detectable cyclin A1; (−) indicates no detectable cyclin A1 expression", "source_text": "as §1"}}, "data": [{"smiles": "C[C@]12CC[C@@H]3c4ccc(O)cc4CC[C@H]3[C@@H]1CC[C@@H]2O", "note": "[17-β-estradiol]", "values": [{"measurement": "regulation of more than 20 genes on both UniGEMs", "setting": "VE-ERα cells", "value": "more than 2 fold"}, {"measurement": "Cyclin A1 expression, Estradiol", "setting": "cyclin A1 in Osteoblasts", "value": "−"}, {"measurement": "Cyclin A1 expression, Estradiol", "setting": "[1]", "value": "+"}, {"measurement": "Cyclin A1 expression, Estradiol", "setting": "[2]", "value": "−"}, {"measurement": "Cyclin A1 expression, Estradiol", "setting": "[3]", "value": "−"}, {"measurement": "prostacyclin I2 synthase upregulation", "setting": "[4]", "value": 4, "unit": "fold"}, {"measurement": "time to increase of cyclin A1 mRNA", "setting": "[5]; 100 nM 17-β-estradiol vs 0.1% ethanol", "value": "≤ 3", "unit": "h"}, {"measurement": "cyclin A1 mRNA (in words)", "setting": "[5]", "value": "induction of cyclin A1 mRNA can occur"}, {"measurement": "expression of vascular endothelial growth factor (VEGF) mRNA", "setting": "[6]", "value": "increased three fold"}, {"measurement": "induction of expression of estrogen-regulated genes", "setting": "[7]", "value": "induced expression"}, {"measurement": "PG I2 synthase", "setting": "[7]; VE-ERα Cells, based on EC50 from a 5-point dose response", "value": "100% of estrogen"}, {"measurement": "cyclin A1 mRNA (in words)", "setting": "[8]", "value": "induction of cyclin A1 mRNA can occur"}, {"measurement": "regulation of ATP sulfurylase/APS kinase, podocalyxin", "setting": "MCF-7 cells", "value": "found to be regulated by estrogen"}, {"measurement": "regulation of clusterin", "setting": "MCF-7 cells", "value": "not regulated by estrogen in a similar fashion"}, {"measurement": "regulation of prostacyclin I2 synthase and natriuretic peptide receptor B (NPR-B)", "setting": "MCF-7 cells", "value": "not regulated by estrogen"}, {"measurement": "Cyclin A1 expression, Estradiol", "setting": "[9]", "value": "+"}, {"measurement": "ERE transactivation", "setting": "[10]", "value": "100% of estrogen"}, {"measurement": "Cyclin A1 expression, Estradiol", "setting": "[11]", "value": "+"}, {"measurement": "Cyclin A1 expression, Estradiol", "setting": "[12]", "value": "−"}]}, {"smiles": "CC/C(=C(/CC)c1ccc(O)cc1)c1ccc(O)cc1", "note": "[DES, diethylstilbestrol]", "values": [{"measurement": "cyclin A1 mRNA (in words)", "setting": "[5]", "value": "mimics the estradiol effect"}, {"measurement": "cyclin A1 mRNA (in words)", "setting": "[8]", "value": "mimics the estradiol effect"}]}, {"smiles": "CCCCN(C)C(=O)CCCCCCCCCC[C@@H]1Cc2cc(O)ccc2[C@H]2CC[C@]3(C)[C@@H](O)CC[C@H]3[C@H]12", "note": "[ICI 164,384]", "values": [{"measurement": "cyclin A1 mRNA (in words)", "setting": "[5]", "value": "inhibits this response"}, {"measurement": "effect on basal gene expression", "setting": "[7]", "value": "lowered basal expression of some genes at higher concentrations"}, {"measurement": "induction of expression of estrogen-regulated genes", "setting": "[7]", "value": "showed no induction of gene expression"}, {"measurement": "inhibition of gene activation by active compounds", "setting": "[7]; VE103-ERα cells, single dose of compound and increasing doses of ICI 164,384", "value": "able to inhibit competitively the activation of these genes"}, {"measurement": "cyclin A1 mRNA (in words)", "setting": "[8]", "value": "inhibits this response"}]}, {"smiles": "O=C(c1ccc(OCCN2CCCCC2)cc1)c1c(-c2ccc(O)cc2)sc2cc(O)ccc12", "note": "[Raloxifene]", "values": [{"measurement": "effect on basal gene expression", "setting": "[7]", "value": "repressing rather than inducing gene expression"}, {"measurement": "induction of expression of estrogen-regulated genes", "setting": "[7]", "value": "showed no clear induction of any of the genes"}]}, {"smiles": "CC/C(=C(\\c1ccccc1)c1ccc(OCCN(C)C)cc1)c1ccccc1", "note": "[tamoxifen]", "values": [{"measurement": "induction of expression of estrogen-regulated genes", "setting": "[7]", "value": "showed no clear induction of any of the genes"}]}]}
